The values below come from ChEMBL document CHEMBL2073769, “Direct evidence that saquinavir is transported by multidrug resistance-associated protein (MRP1) and canalicular multispecific organic anion transporter (MRP2)” (Antimicrob Agents Chemother, 2002).

Series [1] concerns the target ATP-binding cassette sub-family C member 2 (Homo sapiens, UniProt Q92887). The series can be described thus: TP_TRANSPORTER: transepithelial transport (basal to apical) in MRP2-expressing MDCKII cells. The class given is functional, cell-based. The conditions noted are these: dog, mdck-ii.
Series [2] deals with Multidrug resistance-associated protein 1 (Homo sapiens, UniProt P33527). In words: TP_TRANSPORTER: transepithelial transport (basal to apical) in MRP1-expressing MDCKII cells. Format: functional, cell-based. The conditions noted are these: dog, mdck-ii.
Chain of Multidrug resistance-associated protein 1 (P33527 whole entry): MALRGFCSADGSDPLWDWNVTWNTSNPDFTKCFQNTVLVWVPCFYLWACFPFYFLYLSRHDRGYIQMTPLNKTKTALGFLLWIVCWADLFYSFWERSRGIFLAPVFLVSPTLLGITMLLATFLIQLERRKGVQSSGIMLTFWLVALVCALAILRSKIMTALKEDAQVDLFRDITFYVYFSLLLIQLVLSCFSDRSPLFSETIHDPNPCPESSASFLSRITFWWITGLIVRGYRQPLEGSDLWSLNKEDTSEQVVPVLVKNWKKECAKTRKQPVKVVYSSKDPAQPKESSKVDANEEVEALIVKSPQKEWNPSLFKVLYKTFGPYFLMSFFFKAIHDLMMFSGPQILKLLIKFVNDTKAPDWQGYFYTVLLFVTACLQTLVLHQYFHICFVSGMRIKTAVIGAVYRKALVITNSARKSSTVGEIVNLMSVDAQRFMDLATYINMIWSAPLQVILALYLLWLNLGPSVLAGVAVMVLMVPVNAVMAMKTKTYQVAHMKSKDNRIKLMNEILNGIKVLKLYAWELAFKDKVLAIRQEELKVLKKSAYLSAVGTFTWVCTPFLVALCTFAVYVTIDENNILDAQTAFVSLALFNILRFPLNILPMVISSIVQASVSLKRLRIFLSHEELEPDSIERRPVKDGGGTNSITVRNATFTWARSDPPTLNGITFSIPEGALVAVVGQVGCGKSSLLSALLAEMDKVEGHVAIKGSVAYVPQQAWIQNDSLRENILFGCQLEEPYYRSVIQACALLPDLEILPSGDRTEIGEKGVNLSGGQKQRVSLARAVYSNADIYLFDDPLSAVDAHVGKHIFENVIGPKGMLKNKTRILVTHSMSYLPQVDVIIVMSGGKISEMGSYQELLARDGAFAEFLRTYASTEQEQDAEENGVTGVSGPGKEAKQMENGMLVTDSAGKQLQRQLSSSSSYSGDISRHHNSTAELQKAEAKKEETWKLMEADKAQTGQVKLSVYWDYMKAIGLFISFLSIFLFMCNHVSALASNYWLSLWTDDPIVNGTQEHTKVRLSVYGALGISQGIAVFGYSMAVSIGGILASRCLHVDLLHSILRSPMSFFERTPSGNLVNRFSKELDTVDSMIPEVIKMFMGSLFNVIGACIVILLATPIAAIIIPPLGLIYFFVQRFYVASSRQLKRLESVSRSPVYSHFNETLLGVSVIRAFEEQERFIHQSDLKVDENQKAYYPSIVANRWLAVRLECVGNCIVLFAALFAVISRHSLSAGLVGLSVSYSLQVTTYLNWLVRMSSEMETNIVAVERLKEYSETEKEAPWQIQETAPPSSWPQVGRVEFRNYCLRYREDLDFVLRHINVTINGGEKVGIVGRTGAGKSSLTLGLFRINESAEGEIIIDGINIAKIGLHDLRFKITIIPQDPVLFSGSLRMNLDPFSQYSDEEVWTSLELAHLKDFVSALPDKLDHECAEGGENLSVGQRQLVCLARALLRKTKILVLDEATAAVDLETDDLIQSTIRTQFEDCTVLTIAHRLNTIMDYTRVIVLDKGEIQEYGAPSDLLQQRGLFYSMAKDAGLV

Chain of ATP-binding cassette sub-family C member 2 (Q92887 whole entry): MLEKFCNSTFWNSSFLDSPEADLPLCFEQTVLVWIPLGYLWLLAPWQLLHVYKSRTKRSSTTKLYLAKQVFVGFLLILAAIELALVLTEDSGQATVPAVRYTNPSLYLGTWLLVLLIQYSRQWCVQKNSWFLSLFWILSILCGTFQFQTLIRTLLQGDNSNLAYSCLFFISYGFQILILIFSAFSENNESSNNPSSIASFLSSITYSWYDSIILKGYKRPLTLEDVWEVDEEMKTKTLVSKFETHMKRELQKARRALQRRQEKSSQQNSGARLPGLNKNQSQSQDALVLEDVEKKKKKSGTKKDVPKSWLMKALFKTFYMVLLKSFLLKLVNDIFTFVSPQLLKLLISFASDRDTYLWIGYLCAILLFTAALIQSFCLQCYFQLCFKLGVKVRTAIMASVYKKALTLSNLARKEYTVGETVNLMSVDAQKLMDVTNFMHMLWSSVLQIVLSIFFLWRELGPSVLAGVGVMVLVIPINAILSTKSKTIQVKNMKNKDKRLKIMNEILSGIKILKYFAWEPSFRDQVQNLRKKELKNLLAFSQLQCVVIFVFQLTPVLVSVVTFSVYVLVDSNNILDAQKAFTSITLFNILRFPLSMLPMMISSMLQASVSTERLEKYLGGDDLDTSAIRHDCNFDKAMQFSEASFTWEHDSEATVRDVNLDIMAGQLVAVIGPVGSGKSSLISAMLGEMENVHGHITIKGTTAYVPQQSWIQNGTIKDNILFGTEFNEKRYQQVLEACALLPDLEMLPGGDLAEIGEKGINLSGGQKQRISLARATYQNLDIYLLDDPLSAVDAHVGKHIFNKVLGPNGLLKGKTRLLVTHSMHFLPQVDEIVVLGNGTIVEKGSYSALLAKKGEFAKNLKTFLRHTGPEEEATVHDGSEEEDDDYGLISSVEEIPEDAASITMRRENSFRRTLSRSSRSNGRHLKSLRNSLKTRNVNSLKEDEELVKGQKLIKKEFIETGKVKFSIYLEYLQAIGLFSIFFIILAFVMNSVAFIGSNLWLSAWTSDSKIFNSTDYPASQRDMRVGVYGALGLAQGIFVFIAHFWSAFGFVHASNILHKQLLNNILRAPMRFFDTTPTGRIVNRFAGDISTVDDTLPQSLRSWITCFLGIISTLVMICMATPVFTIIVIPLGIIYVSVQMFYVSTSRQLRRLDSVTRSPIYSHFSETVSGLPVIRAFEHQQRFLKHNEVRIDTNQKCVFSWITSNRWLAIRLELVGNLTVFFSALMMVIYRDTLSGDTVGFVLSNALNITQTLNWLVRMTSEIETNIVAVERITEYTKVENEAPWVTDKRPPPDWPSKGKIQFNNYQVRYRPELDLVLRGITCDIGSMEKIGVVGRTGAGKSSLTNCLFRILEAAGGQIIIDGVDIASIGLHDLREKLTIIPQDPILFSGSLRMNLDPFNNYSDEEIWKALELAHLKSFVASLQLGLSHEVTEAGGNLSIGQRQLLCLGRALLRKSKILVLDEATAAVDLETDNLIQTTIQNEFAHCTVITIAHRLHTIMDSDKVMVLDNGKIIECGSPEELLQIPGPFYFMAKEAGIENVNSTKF

In the case of `CC(C)(C)NC(=O)[C@@H]1C[C@@H]2CCCC[C@@H]2CN1C[C@@H](O)[C@H](Cc1ccccc1)NC(=O)[C@H](CC(N)=O)NC(=O)c1ccc2ccccc2n1` [SAQUINAVIR], the Activity entry in series [1] and in series [2] was “substrate [+]” each time.
